Test results reported in US20110039763A1, “TARGETED ANTIMICROBIAL MOIETIES” (C3 JIAN, INC., priority 2009, published 2011).
Entries after “also recorded” stand apart in the source; their conditions may differ.

System: microorganisms
Assay: Targeting peptide binding to target microorganisms (Tables 3, 10, 12)
Conditions: microorganism(s) the targeting peptide binds; binding in aqueous buffers varied with peptide solubility, preferably 1x PBS

## PF-438 (QPYFQNQFKKITGYTPLQYRKEKR; Peptide with targeting and/or antimicrobial activity)
  Target(s): S. epidermidis; also recorded: E. coli; also recorded: S. pneumoniae; also recorded: C. jeikeium; also recorded: C. jejuni

## PF-441 (TQVHKMARGIDPGPANGIYR; Peptide with targeting and/or antimicrobial activity)
  Target(s): C. jeikeium

## PF-463 (MVILVFSLIFIFTDNYLVYQSKSIKEDVMI; Peptide with targeting and/or antimicrobial activity)
  Target(s): S. epidermidis; also recorded: E. coli; also recorded: P. aeruginosa; also recorded: C. albicans; also recorded: S. pneumoniae; also recorded: E. faecalis; also recorded: M. smegmatis

## PF-481 (DELYEIMDKVIEEFNKDIEQNNNNGNNEDLTENKIN; Peptide with targeting and/or antimicrobial activity)
  Target(s): C. jeikeium

## PF-483 (EDNKDKKDKKDK; Peptide with targeting and/or antimicrobial activity)
  Target(s): P. mirabilis; also recorded: C. jeikeium; also recorded: C. jejuni

## PF-486 (MQKEGEEDY; Peptide with targeting and/or antimicrobial activity)
  Target(s): S. mutans

## PF-487 (MYKAIAVLAMTIMAFFIFVYPFFIVGLILG; Peptide with targeting and/or antimicrobial activity)
  Target(s): S. mutans; also recorded: E. coli

## PF-488 (YPNEQGHHKNNLKNIIIE; Peptide with targeting and/or antimicrobial activity)
  Target(s): S. mutans; also recorded: E. coli

## PF-489 (KVDRVSTTITEKIK; Peptide with targeting and/or antimicrobial activity)
  Target(s): S. mutans

## PF-490 (RLILVSGNATVQK; Peptide with targeting and/or antimicrobial activity)
  Target(s): S. mutans; also recorded: E. coli

## PF-491 (IHQYSSKPDIVGQEAKTVQQINS; Peptide with targeting and/or antimicrobial activity)
  Target(s): S. mutans; also recorded: E. coli

## PF-492 (IQIDAASFYSISKSTIK; Peptide with targeting and/or antimicrobial activity)
  Target(s): S. mutans; also recorded: B. subtilis; also recorded: E. coli

## PF-493 (PGAFFFCRGRGCWCGIGW; Peptide with targeting and/or antimicrobial activity)
  Target(s): S. mutans; also recorded: B. subtilis; also recorded: E. coli

## PF-494 (FTEPLRPLQAKGQIISIKPSTSSS; Peptide with targeting and/or antimicrobial activity)
  Target(s): S. mutans

## PF-495 (KGIYKKRTY; Peptide with targeting and/or antimicrobial activity)
  Target(s): S. mutans; also recorded: E. coli

## PF-496 (EVTKRLVALAQQQLRG; Peptide with targeting and/or antimicrobial activity)
  Target(s): S. mutans; also recorded: E. coli

## PF-498 (MSEEEEVSEKVYNYLRRNEFFEVRKEEFSA; Peptide with targeting and/or antimicrobial activity)
  Target(s): S. mutans; also recorded: E. coli

## PF-500 (MGIFKEEKIKFIDCKGEEVILKIKIKDIKK; Peptide with targeting and/or antimicrobial activity)
  Target(s): S. mutans; also recorded: E. coli

## PF-501 (GSTAHKSPIGSTNNQWGMKKTPTD; Peptide with targeting and/or antimicrobial activity)
  Target(s): S. mutans

## PF-502 (NKGKQMQDQTGKQPIVDNG; Peptide with targeting and/or antimicrobial activity)
  Target(s): S. mutans

## PF-503 (VVTLKDIVAVIEDQGYDVQ; Peptide with targeting and/or antimicrobial activity)
  Target(s): S. mutans

## PF-504 (ILSVELSTKTSASGS; Peptide with targeting and/or antimicrobial activity)
  Target(s): S. mutans; also recorded: E. coli

## PF-505 (GYTKDPGTGI; Peptide with targeting and/or antimicrobial activity)
  Target(s): S. mutans

## PF-506 (SGRGFALIVVLFILLIIVGAACIR; Peptide with targeting and/or antimicrobial activity)
  Target(s): S. mutans; also recorded: E. coli

## PF-507 (LALSIANLFKKKA; Peptide with targeting and/or antimicrobial activity)
  Target(s): S. mutans; also recorded: E. coli

## PF-508 (VSTFGKVVKVVDEK; Peptide with targeting and/or antimicrobial activity)
  Target(s): S. mutans

## PF-509 (EAKVQAKGEQIACNNY; Peptide with targeting and/or antimicrobial activity)
  Target(s): S. mutans; also recorded: B. subtilis; also recorded: E. coli

## PF-510 (WYLYKKQSNQNDRGIPK; Peptide with targeting and/or antimicrobial activity)
  Target(s): S. mutans; also recorded: E. coli

## PF-568 (TQAVQVKTAQAQQQ; Peptide with targeting and/or antimicrobial activity)
  Target(s): S. epidermidis

## PF-570 (KKFPTEESHIQAVLEFKKLTEHPSG; Peptide with targeting and/or antimicrobial activity)
  Target(s): S. pneumoniae; also recorded: C. jeikeium

## PF-641 (SWKCHHLAIGGSWKCHHLAI; Peptide with targeting and/or antimicrobial activity)
  Target(s): S. epidermidis and M. luteus and E. coli and C. albicans and MRSA and E. faecalis and C. jeikeium and C. jejuni

## PF-648 (ARRYPAAGS; Peptide with targeting and/or antimicrobial activity)
  Target(s): S. mutans; also recorded: E. coli

## PF-650 (IRSDQPGRQSRSSPRWPTGAGRHR; Peptide with targeting and/or antimicrobial activity)
  Target(s): Mycobacteria spp

## PF-669 (RADRIESYPADGDRVITLWRNPYR; Peptide with targeting and/or antimicrobial activity)
  Target(s): Mycobacteria spp

## PF-671 (TVSAFRTVH; Peptide with targeting and/or antimicrobial activity)
  Target(s): S. mutans; also recorded: E. coli

## PF-673 (VRRLRM; Peptide with targeting and/or antimicrobial activity)
  Target(s): S. mutans; also recorded: E. coli

## PF-674 (DGCDSEPALTYR; Peptide with targeting and/or antimicrobial activity)
  Target(s): S. mutans; also recorded: E. coli

## PF-676 (AEYRGL; Peptide with targeting and/or antimicrobial activity)
  Target(s): S. mutans; also recorded: E. coli

## PF-678 (RDRRWTRRDMYDWLESARV; Peptide with targeting and/or antimicrobial activity)
  Target(s): Mycobacteria spp

## PF-679 (CRARFIRR; Peptide with targeting and/or antimicrobial activity)
  Target(s): S. mutans; also recorded: E. coli

## PF-689 (SAPSG; Peptide with targeting and/or antimicrobial activity)
  Target(s): S. mutans; also recorded: E. coli

## PF-701 (PRGAQSGHG; Peptide with targeting and/or antimicrobial activity)
  Target(s): S. mutans

## PF-703 (MTTVDNIVGLVIAVALMAFLFAALLFPEKF; Peptide with targeting and/or antimicrobial activity)
  Target(s): Mycobacteria spp

## PF-705 (GEEEGTVAD; Peptide with targeting and/or antimicrobial activity)
  Target(s): S. mutans; also recorded: E. coli

## PF-706 (LGYGAWIGCGLGLNGFHRID; Peptide with targeting and/or antimicrobial activity)
  Target(s): L. pneumophila

## PF-707 (IDPESIVTTNNKQDNVDEQ; Peptide with targeting and/or antimicrobial activity)
  Target(s): S. mutans; also recorded: E. coli

## PF-709 (NKKHSPMD; Peptide with targeting and/or antimicrobial activity)
  Target(s): S. mutans

## PF-711 (KTAGPTGTIYKTN; Peptide with targeting and/or antimicrobial activity)
  Target(s): S. mutans

## PF-712 (QIYRHVHKVQAKSANLRLY; Peptide with targeting and/or antimicrobial activity)
  Target(s): S. mutans; also recorded: E. coli

## PF-714 (FVVTQRMLRMYKK; Peptide with targeting and/or antimicrobial activity)
  Target(s): L. pneumophila

## PF-716 (HGENHHHKSDEKDNDSSEKKD; Peptide with targeting and/or antimicrobial activity)
  Target(s): S. mutans

## PF-717 (PQSEVTFENIYAPKANGGGLYGI; Peptide with targeting and/or antimicrobial activity)
  Target(s): E. coli

## PF-720 (SLDMGK; Peptide with targeting and/or antimicrobial activity)
  Target(s): S. mutans

## PF-724 (CYRFLTPKRPTRIS; Peptide with targeting and/or antimicrobial activity)
  Target(s): L. pneumophila

## PF-727 (AYARCRHDYPFTLGQMQTH; Peptide with targeting and/or antimicrobial activity)
  Target(s): S. mutans; also recorded: E. coli
